Source: patent US20240207238A1, “INHIBITORS OF PROTEIN TYROSINE PHOSPHATASE, COMPOSITIONS, AND METHODS OF USE” (BRISTOL-MYERS SQUIBB COMPANY, priority 2022, published 2024)
Like-named read-outs stand apart in the source and are kept apart here.

Legend:
PTPN2 [1] = target: T1, PTPN2 (Homo sapiens (Human), UniProt P17706); test: Phosphatase activity assay using DiFMUP as substrate; assay type: biochemical; settings: 0.15 nM PTPN2, read-out: PTPN2 BChem DIFMUP IC50
Procedure: The PTPN2 biochemical assay was performed as follows, a 5× stock solution of human PTPN2 (SRP5075, MilliporeSigma, Burlington, MA) and a 1.25× stock solution of DiFMUP (D6567, ThermoFisher Scientific, Waltham, MA), were prepared in 1× reaction buffer consisting of 50 mM HEPES, pH 7.4, 1 mM EDTA, 150 mM NaCl, 0.2 mg/mL BSA, 100 U/mL catalase and 10 mM DTT. […] of the DiFMUP substrate solution, for a final concentration of […] DiFMUP substrate, was added to a Corning 3574 384-well, white, non-binding surface microtiter plate containing […] of serially diluted test compounds prepared in DMSO. The reactions were started with the addition of […] of the enzyme solution, for a final PTPN2 concentration of 0.15 nM, and monitored every 105 seconds for 60 minutes at MEX 360/2EM 460 in a BioTek Synergy HTX plate reader (Agilent Technologies, Santa Clara, CA) at room temperature. The initial linear portions of the progress curves were fit according to a linear equation to yield the slopes and converted to % inhibition based on a value of 100% activity for the no inhibitor treated control. IC50 values of each compound were obtained by fitting the % inhibition-compound concentration curves using Dotmatics software (Dotmatics, Bishops Stortford, Hertfordshire, England).
(§1) For IC50 data, High DDT concentration and/or DiFMUP substrate assays were used; a skilled artisan may use either assay.

B16-F10 cells = test: Cell proliferation assay (CellTiter-Glo) in B16-F10 cells with IFN-gamma; assay type: cell-based; settings: 10 ng/ml mouse IFN-gamma, read-out: Prolif. 5d B16 GI50
[2] = system: phosphorylated STAT1 in B16-F10 cells; test: Phospho-STAT1 (Tyr701) HTRF assay in B16-F10 cells; assay type: cell-based; settings: 100 ng/mL mouse IFN-gamma, 1 hour, read-out: pSTAT1 HTRF B16 EC50
Procedure: B16-F10 cells (ATCC, Manassas, VA, #CRL-6475) were cultured in DMEM growth medium (ThermoFisher Scientific, Waltham, MA, #11995-040) supplemented with 10% heat-inactivated FBS (ThermoFisher Scientific, #16140-071) and 1% pen/strep (ThermoFisher Scientific, #15140-122). The cells were seeded into a white opaque 384-well tissue culture treated microplate (PerkinElmer, Waltham, MA, #6007688) at a density of 10,000 cells/well in 20 uL total volume and incubated overnight at 37 C and 5% CO2. 30 nL of compounds dissolved in DMSO were then transferred from a source plate into target wells with the Echo650 acoustic liquid handler (Beckman Coulter, Indianapolis, IN). Negative control wells received 30 nL of DMSO only (0.15% final concentration). Plates were returned to the incubator for 1 hour and then cells were treated with either 5 uL of growth medium or 5 uL of growth medium containing 500 ng/ml of recombinant mouse IFN-gamma protein (R&D Systems, Minneapolis, MN, #485-MI/CF, 100 ng/mL final concentration) using the Assist automated pipetting platform (INTEGRA Biosciences, Hudson, NH). Plates were incubated at 37 C for 1 hour and assayed for phosphorylated STAT1 protein levels with the phospho-STAT1 (Tyr701) HTRF kit (Cisbio, Bedford, MA, #63ADK026PEH) according to the manufacturer's instructions.

PTPN2 [3] = target: T1, PTPN2; test: PTPN2 biochemical assay, high DTT (PhosphoSens); settings: high DTT concentration assay; read-out: PTPN2 BChem HIGHDTT IC50
Procedure: A PhosphoSens® kinase assay was performed as described by the vendor (AssayQuant Technologies, Marlborough, MA). Briefly, 1000× solutions of compounds were prepared in DMSO via serial dilution of the 10 mM DMSO stocks using 3-fold intervals in a 384-well reagent plate. 50 nL of the compound dilution series was then added to the corresponding wells of a 384-well assay plate. […] Finally, […] of 5×PTPN2 enzyme stock was added to each well of the assay plate for a final enzyme concentration of 150 pM. Reaction progress curves were collected by sampling fluorescence intensity at the excitation wavelength 360 nm (Quex360) and emission wavelength 480 nm (λem480) every 71 seconds for one hour using a Synergy H4 plate reader (BioTek Instruments/Agilent Technologies, Winooski, VT) at room temperature.
as §1

T1 sequence (P17706 whole entry): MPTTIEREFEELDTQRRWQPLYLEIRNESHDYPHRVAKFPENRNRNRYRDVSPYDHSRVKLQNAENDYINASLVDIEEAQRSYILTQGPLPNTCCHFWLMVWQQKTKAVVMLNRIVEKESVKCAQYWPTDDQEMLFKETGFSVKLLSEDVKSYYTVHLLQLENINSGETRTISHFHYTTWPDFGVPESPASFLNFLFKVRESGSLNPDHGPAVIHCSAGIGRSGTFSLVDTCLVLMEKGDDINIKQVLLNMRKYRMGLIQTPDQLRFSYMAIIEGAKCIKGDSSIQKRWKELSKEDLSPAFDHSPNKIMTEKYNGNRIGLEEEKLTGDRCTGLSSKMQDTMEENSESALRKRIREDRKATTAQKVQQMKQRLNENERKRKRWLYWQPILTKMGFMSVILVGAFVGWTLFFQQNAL

Molecule	IC50 (PTPN2 [1]) [nM]	GI50 (B16-F10 cells) [nM]	EC50 [2] [nM]	IC50 (PTPN2 [3]) [nM]	GI50 (B16-F10 cells; 120 h) [nM]
5-(4-(((4,6-dimethylpyridin-2-yl)amino)methyl)-6-fluoro-1H-indazol-7-yl)-1,2,5-thiadiazolidin-3-one 1,1-dioxide [Example 6]	83	3260	3690		
5-(6-fluoro-4-(((4-methoxy-5-methylpyridin-2-yl)amino)methyl)-1H-indazol-7-yl)-1,2,5-thiadiazolidin-3-one 1,1-dioxide [Example 7]	199	> 15000	> 15000		
5-(6-fluoro-4-(((5-methoxypyridin-2-yl)amino)methyl)-1H-indazol-7-yl)-1,2,5-thiadiazolidin-3-one 1,1-dioxide [Example 2]	24	880	1880	42	
5-[6-fluoro-4-[[(3-methyl-2-pyridyl) amino] methyl]-1H-indazol-7-yl]-1,1-dioxo-1,2,5-thiadiazolidin-3-one [Example 10]	16	3970	14000		
5-[6-fluoro-4-[[(4-methoxy-2-pyridyl)amino]methyl]-1H-indazol-7-yl]-1,1-dioxo-1,2,5-thiadiazolidin-3-one [Example 3]	9	350	764	6	
5-[6-fluoro-4-[[(4-methyl-2-pyridyl)amino]methyl]-1H-indazol-7-yl]-1,1-dioxo-1,2,5-thiadiazolidin-3-one [Example 5]	8	166	440	5	
5-[6-fluoro-4-[[(6-methoxy-2-pyridyl)amino]methyl]-1H-indazol-7-yl]-1,1-dioxo-1,2,5-thiadiazolidin-3-one [Example 1]	2	160	287	5	
O=C1CN(c2c(F)cc(CNc3cc(C4CC4)ccn3)c3cn[nH]c23)S(=O)(=O)N1 [Example 4, 5-[4-[[(4-cyclopropyl-2-pyridyl)amino]methyl]-6-fluoro-1H-indazol-7-yl]-1,1-dioxo-1,2,5-thiadiazolidin-3-one]	2		3120	1	2690
Cc1cc(NCc2cc(F)c(N3CC(=O)NS3(=O)=O)c3[nH]ncc23)ncc1C#N [Example 8, 6-[[6-fluoro-7-(1,1,4-trioxo-1,2,5-thiadiazolidin-2-yl)-1H-indazol-4-yl]methylamino]-4-methyl-pyridine-3-carbonitrile]	67		9210		> 15000
COc1cc(C)nc(NCc2cc(F)c(N3CC(=O)NS3(=O)=O)c3[nH]ncc23)c1 [Example 9, 5-[6-fluoro-4-[[(4-methoxy-6-methyl-2-pyridyl)amino]methyl]-1H-indazol-7-yl]-1,1-dioxo-1,2,5-thiadiazolidin-3-one]	1		91		20
